The target of one assay is Beta-galactosidase (Escherichia coli, UniProt Q8VNN2). Description: beta-galactosidase enzyme inhibitors and activators, dose response, artefact control for CCR6 antagonist project, biochemical, E. coli enzyme, set 3 (AID 504712). Type of assay: functional.
For assay [1], the target named is T1, Voltage-gated N-type calcium channel alpha-1B subunit/Amyloid beta A4 precursor protein-binding family A member 1 (Homo sapiens, UniProt Q00975+Q02410). Type of assay: protein assay.
The target of assay [2] is Dual specificity protein phosphatase 6 (Rattus norvegicus, UniProt Q64346). As to the kind of experiment: MKP-3 phosphatase inhibitors, primary screen, biochemical, rat enzyme, in vitro (AID 425).
For the next assay, the target named is T2, Protein RecA (Mycobacterium tuberculosis, UniProt P9WHJ3).
T2 sequence (P9WHJ3 whole entry): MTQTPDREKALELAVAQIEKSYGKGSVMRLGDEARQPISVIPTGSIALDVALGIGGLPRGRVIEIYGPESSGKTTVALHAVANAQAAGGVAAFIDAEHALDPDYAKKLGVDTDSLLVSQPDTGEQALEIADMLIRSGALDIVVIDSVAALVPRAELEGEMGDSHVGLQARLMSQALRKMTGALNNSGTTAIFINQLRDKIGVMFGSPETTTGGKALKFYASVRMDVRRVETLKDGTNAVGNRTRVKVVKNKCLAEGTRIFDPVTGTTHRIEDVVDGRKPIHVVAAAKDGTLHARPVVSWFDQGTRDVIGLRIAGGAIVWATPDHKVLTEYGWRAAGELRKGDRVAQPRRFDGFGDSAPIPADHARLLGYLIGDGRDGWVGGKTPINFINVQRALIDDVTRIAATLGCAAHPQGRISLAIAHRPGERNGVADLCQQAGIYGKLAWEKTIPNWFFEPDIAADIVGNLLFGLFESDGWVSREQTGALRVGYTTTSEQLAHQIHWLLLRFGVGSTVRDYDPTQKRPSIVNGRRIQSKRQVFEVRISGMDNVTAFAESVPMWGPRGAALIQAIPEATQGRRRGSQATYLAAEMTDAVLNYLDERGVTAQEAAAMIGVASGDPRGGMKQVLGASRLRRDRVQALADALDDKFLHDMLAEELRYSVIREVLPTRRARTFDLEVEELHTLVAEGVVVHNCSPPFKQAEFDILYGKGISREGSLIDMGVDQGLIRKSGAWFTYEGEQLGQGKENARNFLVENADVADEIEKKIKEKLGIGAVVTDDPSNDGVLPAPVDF
Description: Fluorescence Cell-Free Homogeneous Dose Retest to Identify Inhibitors of RecA-Intein Splicing Activity. [Related pubchem assays (depositor defined):AID2097, AID2223, AID489010, AID492950]. Type of assay: functional.

Assay [3] concerns the target T3, Replicative DNA helicase DnaB (Mycobacterium tuberculosis, UniProt P9WMR3).
T3 sequence (P9WMR3 whole entry): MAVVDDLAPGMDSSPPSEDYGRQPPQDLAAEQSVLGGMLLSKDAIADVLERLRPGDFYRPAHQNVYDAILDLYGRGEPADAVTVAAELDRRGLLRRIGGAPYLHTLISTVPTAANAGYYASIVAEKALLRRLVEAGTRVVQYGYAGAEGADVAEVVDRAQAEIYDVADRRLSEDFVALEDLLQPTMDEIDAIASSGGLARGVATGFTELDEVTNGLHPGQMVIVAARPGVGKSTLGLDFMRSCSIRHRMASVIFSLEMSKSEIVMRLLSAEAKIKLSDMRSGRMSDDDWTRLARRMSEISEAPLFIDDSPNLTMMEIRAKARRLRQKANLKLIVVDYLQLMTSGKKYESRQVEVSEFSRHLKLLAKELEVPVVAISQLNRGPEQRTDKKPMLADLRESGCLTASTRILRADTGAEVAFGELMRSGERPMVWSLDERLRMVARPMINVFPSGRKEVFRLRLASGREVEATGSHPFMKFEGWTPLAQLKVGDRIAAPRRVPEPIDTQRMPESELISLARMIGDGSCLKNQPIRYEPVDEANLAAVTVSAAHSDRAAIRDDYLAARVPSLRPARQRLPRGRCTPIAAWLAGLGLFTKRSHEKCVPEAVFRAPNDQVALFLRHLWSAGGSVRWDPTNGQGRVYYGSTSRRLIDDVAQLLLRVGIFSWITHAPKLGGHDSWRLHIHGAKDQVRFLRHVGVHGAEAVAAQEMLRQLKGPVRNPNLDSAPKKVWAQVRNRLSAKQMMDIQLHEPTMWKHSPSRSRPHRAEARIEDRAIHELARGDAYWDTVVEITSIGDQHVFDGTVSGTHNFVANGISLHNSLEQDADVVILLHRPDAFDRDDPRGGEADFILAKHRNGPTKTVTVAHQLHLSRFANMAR
Description: DnaB intein splicing inhibitors, dose response, biochemical, cell-free fluorescence (AID 449749). Type of assay: functional.

In the next assay the target is Genome polyprotein (dengue virus type 2, UniProt P29990). Description: Dengue-2 NS5 methyltransferase inhibitors, primary screen, biochemical, confirmation dose response (AID 588689). The assay is classed as functional.
A further assay has as its target Bcl-2-like protein 1 (Homo sapiens, UniProt Q07817). Description: BCL-XL inhibitors, dose response, selectivity assay for MCL1 inhibitor project, biochemical, fluorescence polarization, 1536-well (AID 2218). (In general: In fluorescence polarisation assays a small probe gives low polarisation when free and higher when bound to something large.)
In assay [4] the target is T1, Voltage-gated N-type calcium channel alpha-1B subunit/Amyloid beta A4 precursor protein-binding family A member 1. The assay is classed as protein assay. This is another data set of the same source.
Assay [5] addresses T4, Dual specificity protein phosphatase 3 (Homo sapiens, UniProt P51452). As to the kind of experiment: VHR1 phosphatase inhibitors, primary screen, biochemical, absorbance, uHTS (AID 1654).
Assay [6] deals with Induced myeloid leukemia cell differentiation protein Mcl-1 (Homo sapiens, UniProt Q07820). Description: MCL1-BIM BH3 interaction inhibitors, dose response, biochemical, fluorescence polarization, BIM-BH3 peptide, 1536-well (AID 2217).
The target of assay [7] is T4, Dual specificity protein phosphatase 3. As to the kind of experiment: VHR1 phosphatase inhibitors, biochemical (AID 1878).
For the next assay, the system named is HEK293. Description: SAR analysis of compounds that are cytotoxic to HEK293 - Set 3. [Related pubchem assays (depositor defined):AID1575, AID1578, AID1848, AID1849, AID2001, AID2333, AID2334, AID2335, AID2337, AID2469]. The assay is classed as functional, cell-based. Particulars: Homo sapiens.
Assay [8] concerns the target Nucleotide-binding oligomerization domain-containing protein 2 (Homo sapiens, UniProt Q9HC29). Description: NOD2 signaling inhibitors, analog potency, SAR follow-up, cell-based, set 3 (AID 2799). Type of assay: functional.
The next assay deals with Tumor necrosis factor (Homo sapiens, UniProt P01375). As to the kind of experiment: TNFa-triggered NF-kB activation inhibitors, SAR follow-up, cell-based, set 3 (AID 2801). Type of assay: functional.
Assay [9] concerns the target Nucleotide-binding oligomerization domain-containing protein 1 (Homo sapiens, UniProt Q9Y239). As to the kind of experiment: SAR analysis of compounds that inhibit NOD1 - Set 3. [Related pubchem assays (depositor defined):AID1566, AID1575, AID1578, AID1849, AID1852, AID2333, AID2335, AID2466]. The assay is classed as functional.
The target in assay [10] is T5, Tyrosine-protein phosphatase non-receptor type 22 (Homo sapiens, UniProt Q9Y2R2).
T5 sequence (Q9Y2R2 whole entry): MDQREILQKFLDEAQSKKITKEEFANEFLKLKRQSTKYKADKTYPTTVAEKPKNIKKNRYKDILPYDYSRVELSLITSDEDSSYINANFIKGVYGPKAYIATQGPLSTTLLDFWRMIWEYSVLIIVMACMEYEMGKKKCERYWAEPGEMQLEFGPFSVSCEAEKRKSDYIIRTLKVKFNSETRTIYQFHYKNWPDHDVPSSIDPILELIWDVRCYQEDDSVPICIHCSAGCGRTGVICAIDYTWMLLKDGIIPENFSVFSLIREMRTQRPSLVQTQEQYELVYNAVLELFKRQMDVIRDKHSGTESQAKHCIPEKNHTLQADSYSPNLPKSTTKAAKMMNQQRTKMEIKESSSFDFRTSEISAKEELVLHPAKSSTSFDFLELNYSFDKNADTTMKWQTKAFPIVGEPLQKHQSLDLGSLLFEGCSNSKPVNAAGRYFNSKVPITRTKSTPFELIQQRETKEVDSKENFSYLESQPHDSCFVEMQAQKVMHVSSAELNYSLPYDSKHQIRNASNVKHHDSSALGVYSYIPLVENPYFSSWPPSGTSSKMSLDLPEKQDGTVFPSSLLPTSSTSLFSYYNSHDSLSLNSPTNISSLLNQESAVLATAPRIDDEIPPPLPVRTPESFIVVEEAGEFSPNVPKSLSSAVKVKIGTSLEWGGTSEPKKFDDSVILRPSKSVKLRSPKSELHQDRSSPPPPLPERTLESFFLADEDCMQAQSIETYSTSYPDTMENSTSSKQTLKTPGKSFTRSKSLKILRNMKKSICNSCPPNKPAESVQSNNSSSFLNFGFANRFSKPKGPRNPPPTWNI
The assay is classed as functional.

The target of assay [11] is T6, Tyrosine-protein phosphatase non-receptor type 7 (Homo sapiens, UniProt P35236).
T6 sequence (P35236 whole entry): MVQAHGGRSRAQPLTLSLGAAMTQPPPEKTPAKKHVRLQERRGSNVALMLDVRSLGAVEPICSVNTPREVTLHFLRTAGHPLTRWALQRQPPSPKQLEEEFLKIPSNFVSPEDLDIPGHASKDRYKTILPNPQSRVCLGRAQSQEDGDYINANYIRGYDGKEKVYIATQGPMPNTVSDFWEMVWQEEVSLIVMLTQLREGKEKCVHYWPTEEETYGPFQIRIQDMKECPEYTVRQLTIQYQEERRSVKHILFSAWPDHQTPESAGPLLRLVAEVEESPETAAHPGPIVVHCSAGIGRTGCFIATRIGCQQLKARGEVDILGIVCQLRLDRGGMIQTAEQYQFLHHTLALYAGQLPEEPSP
The assay is classed as functional.

In assay [12] the target is T5, Tyrosine-protein phosphatase non-receptor type 22. Type of assay: functional. This is another data set of the same source.
In assay [13] the target is Sphingosine 1-phosphate receptor 5 (Homo sapiens, UniProt Q9H228). Description: Late stage counterscreen assay for S1P4 antagonists: Fluorescence dose response cell-based screening assay for antagonists of the Sphingosine 1-Phosphate Receptor 5 (S1P5). [Related pubchem assays (depositor defined):AID1510, AID1524, AID1692, AID1853, AID2332, AID489009, AID489017]. Type of assay: functional.

The target of assay [14] is Sphingosine 1-phosphate receptor 2 (Homo sapiens, UniProt O95136). As to the kind of experiment: Late stage counterscreen assay for S1P4 antagonists: Fluorescence dose response cell-based screening assay for antagonists of the Sphingosine 1-Phosphate Receptor 2 (S1P2). [Related pubchem assays (depositor defined):AID1510, AID1524, AID1692, AID1853, AID2332, AID489009, AID489017]. The assay is classed as functional.

Assay [15] concerns the target T7, Sphingosine 1-phosphate receptor 4 (Homo sapiens, UniProt O95977).
T7 sequence (O95977 whole entry): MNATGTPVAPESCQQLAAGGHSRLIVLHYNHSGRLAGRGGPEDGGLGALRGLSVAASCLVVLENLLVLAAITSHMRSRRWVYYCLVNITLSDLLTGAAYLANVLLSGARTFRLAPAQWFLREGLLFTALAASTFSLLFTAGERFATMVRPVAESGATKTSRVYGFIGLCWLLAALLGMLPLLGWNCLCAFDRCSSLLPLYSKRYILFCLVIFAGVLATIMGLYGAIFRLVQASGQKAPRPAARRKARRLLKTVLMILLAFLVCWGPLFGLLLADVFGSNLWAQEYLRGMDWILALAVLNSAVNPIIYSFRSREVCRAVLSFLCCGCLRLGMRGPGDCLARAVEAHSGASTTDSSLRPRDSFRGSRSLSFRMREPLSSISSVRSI
As to the kind of experiment: S1P4 receptor antagonists, human, late-stage follow-up, cell-based, fluorescence, synthesized analogues (AID 2346). The assay is classed as functional.

The target in assay [16] is Sphingosine 1-phosphate receptor 3 (Homo sapiens, UniProt Q99500). Description: Late stage counterscreen assay for S1P4 antagonists: Fluorescence dose response cell-based screening assay for antagonists of the Sphingosine 1-Phosphate Receptor 3 (S1P3). [Related pubchem assays (depositor defined):AID1510, AID1524, AID1692, AID1853, AID2332, AID489009, AID489017]. Type of assay: functional. In general terms: The purpose of a counterscreen is to sort out artefacts and off-target activity.

In assay [17] the target is Sphingosine 1-phosphate receptor 1 (Homo sapiens, UniProt P21453). As to the kind of experiment: Late stage counterscreen assay for S1P4 antagonists: Fluorescence dose response cell-based screening assay for antagonists of the Sphingosine 1-Phosphate Receptor 1 (S1P1). [Related pubchem assays (depositor defined):AID1510, AID1524, AID1692, AID1853, AID2332, AID489009, AID489017]. The assay is classed as functional.

Activity calls are given as the source filed them.

As usually defined, the IC50 is the point on the concentration scale where inhibition reaches its midpoint. Usually EC50 stands for the concentration giving half of the maximal effect. Usually AC50 stands for the midpoint of the concentration-response curve, whichever way the signal moves.

T4 sequence (P51452 whole entry): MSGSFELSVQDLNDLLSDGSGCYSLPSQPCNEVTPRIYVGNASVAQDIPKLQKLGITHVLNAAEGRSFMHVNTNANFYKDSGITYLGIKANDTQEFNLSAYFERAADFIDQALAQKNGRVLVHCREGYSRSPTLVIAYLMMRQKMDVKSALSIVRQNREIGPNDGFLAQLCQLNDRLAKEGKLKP
T1 sequence (Q00975 whole entry): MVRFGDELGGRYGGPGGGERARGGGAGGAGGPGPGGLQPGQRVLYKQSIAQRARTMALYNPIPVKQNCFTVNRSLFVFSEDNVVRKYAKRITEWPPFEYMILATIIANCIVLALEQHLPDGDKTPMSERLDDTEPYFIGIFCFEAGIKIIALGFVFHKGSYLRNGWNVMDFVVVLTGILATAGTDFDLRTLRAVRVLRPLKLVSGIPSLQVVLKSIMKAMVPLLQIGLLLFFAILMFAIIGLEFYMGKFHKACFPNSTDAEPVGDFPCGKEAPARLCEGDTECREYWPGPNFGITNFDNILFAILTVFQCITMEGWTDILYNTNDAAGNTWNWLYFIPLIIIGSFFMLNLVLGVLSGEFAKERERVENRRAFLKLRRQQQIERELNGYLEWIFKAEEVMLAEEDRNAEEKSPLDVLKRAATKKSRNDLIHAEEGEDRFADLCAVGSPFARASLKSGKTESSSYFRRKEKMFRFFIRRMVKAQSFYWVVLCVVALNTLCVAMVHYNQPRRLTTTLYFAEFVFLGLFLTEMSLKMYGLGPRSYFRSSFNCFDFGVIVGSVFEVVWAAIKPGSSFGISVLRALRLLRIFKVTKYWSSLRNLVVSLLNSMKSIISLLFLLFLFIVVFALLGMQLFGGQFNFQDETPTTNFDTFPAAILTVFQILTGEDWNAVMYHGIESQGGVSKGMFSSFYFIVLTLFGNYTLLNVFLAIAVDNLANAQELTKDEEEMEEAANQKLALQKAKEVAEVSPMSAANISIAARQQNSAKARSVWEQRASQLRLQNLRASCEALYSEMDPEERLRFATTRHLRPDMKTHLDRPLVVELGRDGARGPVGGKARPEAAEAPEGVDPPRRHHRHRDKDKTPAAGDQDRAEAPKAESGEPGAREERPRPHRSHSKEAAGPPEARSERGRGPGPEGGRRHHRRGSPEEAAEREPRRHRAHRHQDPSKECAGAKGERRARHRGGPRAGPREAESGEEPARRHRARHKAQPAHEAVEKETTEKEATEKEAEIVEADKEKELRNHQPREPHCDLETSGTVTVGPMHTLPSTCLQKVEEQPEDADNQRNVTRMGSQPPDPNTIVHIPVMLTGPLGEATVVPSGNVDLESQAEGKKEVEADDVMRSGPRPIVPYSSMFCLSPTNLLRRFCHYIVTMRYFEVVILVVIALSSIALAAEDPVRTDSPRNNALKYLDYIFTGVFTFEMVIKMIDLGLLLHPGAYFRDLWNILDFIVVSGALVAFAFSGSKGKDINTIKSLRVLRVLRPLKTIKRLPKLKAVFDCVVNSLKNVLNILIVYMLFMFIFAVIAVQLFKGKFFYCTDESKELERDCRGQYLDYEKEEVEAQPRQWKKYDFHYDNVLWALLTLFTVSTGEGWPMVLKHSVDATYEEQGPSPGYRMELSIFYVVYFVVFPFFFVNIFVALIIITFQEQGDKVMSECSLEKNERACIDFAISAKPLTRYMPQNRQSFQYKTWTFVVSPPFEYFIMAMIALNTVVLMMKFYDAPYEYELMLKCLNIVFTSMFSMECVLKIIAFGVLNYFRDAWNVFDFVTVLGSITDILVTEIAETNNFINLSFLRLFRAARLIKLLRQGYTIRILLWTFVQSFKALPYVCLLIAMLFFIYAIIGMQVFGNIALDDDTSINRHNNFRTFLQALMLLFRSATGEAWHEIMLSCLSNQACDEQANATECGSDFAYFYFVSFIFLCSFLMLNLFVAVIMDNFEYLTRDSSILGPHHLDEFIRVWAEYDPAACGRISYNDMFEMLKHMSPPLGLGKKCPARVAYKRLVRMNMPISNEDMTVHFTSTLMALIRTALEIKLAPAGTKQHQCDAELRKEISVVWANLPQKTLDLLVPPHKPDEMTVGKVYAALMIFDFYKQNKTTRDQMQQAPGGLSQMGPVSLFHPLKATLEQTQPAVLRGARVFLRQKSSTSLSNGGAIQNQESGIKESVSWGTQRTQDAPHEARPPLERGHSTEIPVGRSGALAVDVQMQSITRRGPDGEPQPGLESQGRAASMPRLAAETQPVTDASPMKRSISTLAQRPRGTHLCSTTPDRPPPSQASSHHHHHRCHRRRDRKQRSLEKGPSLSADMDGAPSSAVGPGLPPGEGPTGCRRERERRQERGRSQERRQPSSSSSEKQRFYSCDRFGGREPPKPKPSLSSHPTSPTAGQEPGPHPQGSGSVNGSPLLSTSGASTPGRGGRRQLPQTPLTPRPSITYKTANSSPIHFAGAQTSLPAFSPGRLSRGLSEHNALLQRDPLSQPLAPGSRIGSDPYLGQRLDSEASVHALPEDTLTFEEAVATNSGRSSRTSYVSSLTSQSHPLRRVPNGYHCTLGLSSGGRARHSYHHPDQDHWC
T1 sequence (Q02410 whole entry): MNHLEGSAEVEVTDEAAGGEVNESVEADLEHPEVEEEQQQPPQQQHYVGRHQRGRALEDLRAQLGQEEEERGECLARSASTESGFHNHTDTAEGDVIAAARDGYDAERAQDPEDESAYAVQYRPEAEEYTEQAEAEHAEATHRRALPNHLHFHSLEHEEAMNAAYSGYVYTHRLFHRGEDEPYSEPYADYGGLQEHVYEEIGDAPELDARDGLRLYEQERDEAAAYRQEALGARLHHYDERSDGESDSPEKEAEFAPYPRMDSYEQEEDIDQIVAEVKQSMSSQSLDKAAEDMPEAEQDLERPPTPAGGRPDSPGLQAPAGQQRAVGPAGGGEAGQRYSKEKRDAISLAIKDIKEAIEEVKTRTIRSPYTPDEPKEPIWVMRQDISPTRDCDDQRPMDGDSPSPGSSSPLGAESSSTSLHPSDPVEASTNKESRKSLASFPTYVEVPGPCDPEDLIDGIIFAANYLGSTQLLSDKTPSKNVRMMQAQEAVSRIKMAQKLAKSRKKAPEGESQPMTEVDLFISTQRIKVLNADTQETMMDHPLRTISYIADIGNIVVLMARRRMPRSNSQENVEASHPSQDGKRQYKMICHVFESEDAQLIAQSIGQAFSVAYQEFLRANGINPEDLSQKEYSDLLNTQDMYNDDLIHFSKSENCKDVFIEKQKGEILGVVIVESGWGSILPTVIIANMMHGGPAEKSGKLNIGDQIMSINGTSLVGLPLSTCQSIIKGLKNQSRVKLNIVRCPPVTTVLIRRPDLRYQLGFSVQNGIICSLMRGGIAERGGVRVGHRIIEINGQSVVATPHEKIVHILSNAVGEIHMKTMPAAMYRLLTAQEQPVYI
Chain of Dual specificity protein phosphatase 6 (Q64346 whole entry): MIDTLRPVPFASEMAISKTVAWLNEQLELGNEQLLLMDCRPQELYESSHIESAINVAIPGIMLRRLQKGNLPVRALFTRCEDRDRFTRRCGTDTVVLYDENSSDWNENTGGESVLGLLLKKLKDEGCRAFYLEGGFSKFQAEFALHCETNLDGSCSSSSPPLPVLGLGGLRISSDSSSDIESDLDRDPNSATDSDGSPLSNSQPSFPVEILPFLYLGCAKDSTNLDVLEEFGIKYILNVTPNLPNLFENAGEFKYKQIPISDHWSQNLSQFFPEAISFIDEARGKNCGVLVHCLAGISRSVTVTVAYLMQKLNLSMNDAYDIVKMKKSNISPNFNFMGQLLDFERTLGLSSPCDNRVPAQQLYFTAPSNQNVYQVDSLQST
Chain of Nucleotide-binding oligomerization domain-containing protein 2 (Q9HC29 whole entry, the tested form may be a part): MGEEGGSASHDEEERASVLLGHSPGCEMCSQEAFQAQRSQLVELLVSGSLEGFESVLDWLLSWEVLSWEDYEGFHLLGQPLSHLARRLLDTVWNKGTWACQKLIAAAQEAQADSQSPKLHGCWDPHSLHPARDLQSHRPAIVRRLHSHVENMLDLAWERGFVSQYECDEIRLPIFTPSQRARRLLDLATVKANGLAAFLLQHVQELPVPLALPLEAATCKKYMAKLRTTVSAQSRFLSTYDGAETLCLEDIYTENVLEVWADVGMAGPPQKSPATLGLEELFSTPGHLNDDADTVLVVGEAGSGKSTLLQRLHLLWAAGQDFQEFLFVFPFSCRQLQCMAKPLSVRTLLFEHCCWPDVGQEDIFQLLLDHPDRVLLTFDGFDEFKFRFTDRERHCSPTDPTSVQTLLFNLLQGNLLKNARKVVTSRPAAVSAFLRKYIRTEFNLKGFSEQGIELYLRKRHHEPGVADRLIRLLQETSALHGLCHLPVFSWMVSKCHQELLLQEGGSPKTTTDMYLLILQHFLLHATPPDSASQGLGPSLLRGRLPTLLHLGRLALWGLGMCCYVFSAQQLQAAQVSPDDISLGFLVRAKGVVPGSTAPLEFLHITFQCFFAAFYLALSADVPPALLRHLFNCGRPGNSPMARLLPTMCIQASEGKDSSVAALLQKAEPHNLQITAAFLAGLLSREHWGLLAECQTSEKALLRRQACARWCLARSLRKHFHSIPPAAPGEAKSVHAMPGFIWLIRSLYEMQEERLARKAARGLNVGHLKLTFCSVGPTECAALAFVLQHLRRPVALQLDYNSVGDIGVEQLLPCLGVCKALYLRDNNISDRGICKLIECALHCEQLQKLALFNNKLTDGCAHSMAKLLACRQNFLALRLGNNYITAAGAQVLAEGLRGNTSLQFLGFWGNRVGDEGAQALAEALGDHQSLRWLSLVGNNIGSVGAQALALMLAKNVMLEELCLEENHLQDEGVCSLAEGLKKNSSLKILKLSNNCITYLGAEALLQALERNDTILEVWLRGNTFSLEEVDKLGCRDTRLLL
Chain of Tumor necrosis factor (P01375 whole entry, the tested form may be a part): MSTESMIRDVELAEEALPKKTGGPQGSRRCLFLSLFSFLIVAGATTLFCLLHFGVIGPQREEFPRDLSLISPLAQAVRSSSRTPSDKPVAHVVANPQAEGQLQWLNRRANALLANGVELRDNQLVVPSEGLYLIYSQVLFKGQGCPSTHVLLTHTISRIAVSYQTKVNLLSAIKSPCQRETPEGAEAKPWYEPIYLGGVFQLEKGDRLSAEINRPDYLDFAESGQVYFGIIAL

Turning to `O=C(CN1C(=O)/C(=C2\SC(=S)N(CCS(=O)(=O)O)C2=O)c2ccccc21)Nc1cccc(Br)c1`, the IC50 on Beta-galactosidase is > 66.6 µM (inactive); in [1] it was 9.59 µM (active); in assay [2], 30 µM (active); at Genome polyprotein it was 21.6 µM (active); at Bcl-2-like protein 1 it was > 109 µM (not active); in assay [4] it was > 50 µM (inactive). Moreover, the values for the IC50 in [5], in assay [6] and in assay [7] were 3.65 µM (active), 2 µM (active) and 4.92 µM (active), respectively. Also, on Protein RecA, the EC50 was 7.59 µM (active). The AC50 in assay [3] is 12.4 µM (active).

With `N#Cc1ccc(S(=O)(=O)n2c(N)nc3ccccc32)cc1`, the IC50 (in the assay with HEK293; in [8]; at Tumor necrosis factor; in [9]) was > 20 µM (inactive) each time.

For `N/C(=N\N=C\c1ccc2c(c1)OCO2)SC1CC(=O)N(c2ccc(C(=O)O)cc2)C1=O` (stereo not drawn), the IC50 was 8.58 µM (active) in assay [10], 7.33 µM (active) in assay [11] and 7.65 µM (active) in assay [12].

On to `Cc1ccccc1NC(=O)c1ccc(-c2cc(Cl)ccc2Cl)o1`, for which the IC50 was > 25 µM (inactive) in assay [13]; > 25 µM (inactive) in assay [14]; 0.393 µM (active) in [15]; > 25 µM (inactive) in assay [16]; > 25 µM (inactive) in assay [17].

These data come from ChEMBL document CHEMBL1201862, “PubChem BioAssay data set” (2004).
